This assay addresses PRS (prolyl-tRNA synthetase) protein, PRS portion of EPRS (Homo sapiens (Human), UniProt P07814). Kind of assay: PRS enzyme activity inhibition experiment ([3H]proline, liquid scintillation). In kind it is biochemical. The settings on record: purified PRS protein, 37° C. for 5 to 10 minutes. The essentials: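 Values are % inhibition or IC50 ranges (A ≤100 nM, B 100–500 nM, C ≥500 nM) from [3H]proline incorporation measured by liquid scintillation. PRS portion of human EPRS, reacted 5–10 min at 37 °C in pH 7.4 phosphate buffer containing 5 mM ATP and tRNA, compound at 1 μM.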

A value given as a limit tells only on which side of the number the result lay.

29 compounds from patent publication US10981917B2, “Heterocyclic compound, its preparation method, and pharmaceutical composition comprising the same” (Daewoong Pharmaceutical Co., Ltd., priority 2017, dated 2021) can be followed below.

Chain of PRS (prolyl-tRNA synthetase) protein, PRS portion of EPRS (P07814 1007-1512): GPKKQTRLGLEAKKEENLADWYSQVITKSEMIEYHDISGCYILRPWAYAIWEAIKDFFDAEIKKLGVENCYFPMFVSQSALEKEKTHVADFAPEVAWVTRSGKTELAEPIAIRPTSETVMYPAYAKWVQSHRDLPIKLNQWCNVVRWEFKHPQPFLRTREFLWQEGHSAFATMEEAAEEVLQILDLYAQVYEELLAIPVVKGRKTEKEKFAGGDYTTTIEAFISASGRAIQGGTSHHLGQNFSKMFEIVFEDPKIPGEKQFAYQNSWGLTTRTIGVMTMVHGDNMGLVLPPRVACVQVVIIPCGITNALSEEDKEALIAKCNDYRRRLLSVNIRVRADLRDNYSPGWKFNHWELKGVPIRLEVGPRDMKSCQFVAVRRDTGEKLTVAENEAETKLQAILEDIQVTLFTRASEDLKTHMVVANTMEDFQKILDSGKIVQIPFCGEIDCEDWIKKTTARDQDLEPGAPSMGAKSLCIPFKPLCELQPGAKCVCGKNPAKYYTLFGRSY

With `Cc1ccc2c(c1)c(C)nn2C/C=C/[C@H]1NCCC[C@@H]1O` [Example 201, (2R,3S)-2-((E)-3-(3,5-dimethyl-1H-indazol-1-yl)prop-1-en-1-yl)piperidin-3-ol], the 50% inhibitory concentration (IC50) is at least 500 nM.

As to `Cc1c(F)ccc2c1ncn2C/C=C/[C@H]1NCCC[C@@H]1O` [Example 167, (2R,3S)-2-((E)-3-(5-fluoro-4-methyl-1H-benzo[d]imidazol-1-yl)prop-1-enyl)piperidin-3-ol], the IC50 fell in the range of 100 to 500 nM.

Compound `Cc1c(Br)ccc2c1ncn2C/C=C/[C@H]1NCCC[C@@H]1O` [Example 168, (2R,3S)-2-((E)-3-(5-bromo-4-methyl-1H-benzo[d]imidazol-1-yl)prop-1-enyl)piperidin-3-ol] displayed a 50% inhibitory concentration (IC50) of 100 to 500 nM.

For `O[C@H]1CCCN[C@@H]1CCCn1cnc2cc(Br)ccc21` [Example 3, (2R,3S)-2-(3-(5-bromo-1H-benzo[d]imidazol-1-yl)propyl)piperidin-3-ol], the IC50 is at least 500 nM.

`CCCCn1cc(-c2cc(Cl)cc3ncn(CCC[C@H]4NCCC[C@@H]4O)c23)cn1` [Example 113, (2R,3S)-2-(3-(7-(1-butyl-1H-pyrazol-4-yl)-5-chloro-1H-benzo[d]imidazol-1-yl)propyl)piperidin-3-ol] displayed a half-inhibitory concentration (IC50) of 100 to 500 nM.

In the case of `O=C(O)c1cn(C/C=C/[C@H]2NCCC[C@@H]2O)c2ccccc12` [Example 209, 1-((E)-3-((2R,3S)-3-hydroxypiperidin-2-yl)allyl)-1H-indole-3-carboxylic acid], the concentration for half-maximal inhibition (IC50) was at least 500 nM.

`O[C@H]1CCCN[C@@H]1/C=C/Cn1ncc2ccc(Cl)cc21` [Example 198, (2R,3S)-2-((E)-3-(6-chloro-1H-indazol-1-yl)prop-1-en-1-yl)piperidin-3-ol]: the half-maximal inhibitory concentration (IC50) is at least 500 nM.

In turn, `O[C@H]1CCCN[C@@H]1CCCn1cnc2ccc(Cl)c(Cl)c21` [Example 56, (2R,3S)-2-(3-(6,7-dichloro-1H-benzo[d]imidazol-1-yl)propyl)piperidin-3-ol] came in with a half-inhibitory concentration (IC50) of 100 to 500 nM.

As to `O[C@H]1CCCN[C@@H]1CCCn1cnc2cc(C(F)(F)F)cc(Cl)c21` [Example 78, (2R,3S)-2-(3-(7-chloro-5-(trifluoromethyl)-1H-benzo[d]imidazol-1-yl)propyl)piperidin-3-ol], the IC50 is 100 to 500 nM.

As to `O[C@H]1CCCN[C@@H]1/C=C/Cn1cnc2ccc(-c3cccc(C(F)(F)F)c3)cc21` [Example 192, (2R,3S)-2-((E)-3-(6-(3-(trifluoromethyl)phenyl)-1H-benzo[d]imidazol-1-yl)prop-1-enyl)piperidin-3-ol], the IC50 lay within 100 to 500 nM.

`O[C@H]1CCCN[C@@H]1CCCn1cnc2cc(F)c(Br)cc21` [Example 33, (2R,3S)-2-(3-(6-bromo-5-fluoro-1H-benzo[d]imidazol-1-yl)propyl)piperidin-3-ol] yielded a 50% inhibitory concentration (IC50) of 100 to 500 nM.

For the compound `O[C@H]1CCCN[C@@H]1CCCn1cnc2cc(Br)ncc21` [Example 125, (2R,3S)-2-(3-(6-bromo-3H-imidazo[4,5-c]pyridin-3-yl)propyl)piperidin-3-ol], the IC50 was at least 500 nM.

As to `Cc1nc2cc(Br)c(F)c(F)c2n1C/C=C/[C@H]1NCCC[C@@H]1O` [Example 193, (2R,3S)-2-((E)-3-(5-bromo-6,7-difluoro-2-methyl-1H-benzo[d]imidazol-1-yl)prop-1-en-1-yl)piperidin-3-ol], the 50% inhibitory concentration (IC50) was at least 500 nM.

In turn, `O[C@H]1CCCN[C@@H]1CCCn1cnc2ccc(-c3cccc(F)c3)cc21` [Example 24, (2R,3S)-2-(3-(6-(3-fluorophenyl)-1H-benzo[d]imidazol-1-yl)propyl)piperidin-3-ol] displayed an IC50 of at most 100 nM.

Turning to `O[C@H]1CCCN[C@@H]1CCCn1cnc2c(F)cc(Br)cc21` [Example 72, (2R,3S)-2-(3-(6-bromo-4-fluoro-1H-benzo[d]imidazol-1-yl)propyl)piperidin-3-ol], the concentration for half-maximal inhibition (IC50) is 100 to 500 nM.

As to `C/C(=C\[C@H]1NCCC[C@@H]1O)Cn1cnc2c(C)c(Cl)ccc21` [Example 221, (2R,3S)-2-((E)-3-(5-chloro-4-methyl-1H-benzo[d]imidazol-1-yl)-2-methylprop-1-en-1-yl)piperidin-3-ol], the IC50 was at least 500 nM.

Consider `O[C@H]1CCCN[C@@H]1CCCn1nc(C2CC2)c2cc(Cl)ccc21` [Example 155, (2R,3S)-2-(3-(5-chloro-3-cyclopropyl-1H-indazol-1-yl)propyl)piperidin-3-ol], for which the IC50 was at least 500 nM.

For `COC(=O)c1cn(C/C=C/[C@H]2NCCC[C@@H]2O)c2c(Br)cccc12` [Example 202, methyl 7-bromo-1-((E)-3-((2R,3S)-3-hydroxypiperidin-2-yl)allyl)-1H-indole-3-carboxylate], the IC50 was 100 to 500 nM.

In turn, `O[C@H]1CCCN[C@@H]1CCCn1cnc2cc(-c3cccc(F)c3)ccc21` [Example 22, (2R,3S)-2-(3-(5-(3-fluorophenyl)-1H-benzo[d]imidazol-1-yl)propyl)piperidin-3-ol] displayed a 50% inhibitory concentration (IC50) of at least 500 nM.

In the case of `O[C@H]1CCCN[C@@H]1/C=C/Cn1cnc2c(Cl)c(Br)cnc21` [Example 187, (2R,3S)-2-((E)-3-(6-bromo-7-chloro-3H-imidazo[4,5-b]pyridin-3-yl)prop-1l-en-1-yl)piperidin-3-ol], the half-maximal inhibitory concentration (IC50) is at most 100 nM.

With `CC(C)n1cc(-c2cc(Cl)cc3ncn(CCC[C@H]4NCCC[C@@H]4O)c23)cn1` [Example 108, (2R,3S)-2-(3-(5-chloro-7-(1-isopropyl-1H-pyrazol-4-yl)-1H-benzo[d]imidazol-1-yl)propyl)piperidin-3-ol], the concentration for half-maximal inhibition (IC50) was in the range of 100 to 500 nM.

Turning to `O=C(O)c1cn(C/C=C/[C@H]2NCCC[C@@H]2O)c2c(Cl)cccc12` [Example 207, 7-chloro-1-((E)-3-((2R,3S)-3-hydroxypiperidin-2-yl)allyl)-1H-indole-3-carboxylic acid], the IC50 is at least 500 nM.

In turn, `CC(C)CCn1cc(-c2cc(Cl)cc3ncn(CCC[C@H]4NCCC[C@@H]4O)c23)cn1` [Example 107, (2R,3S)-2-(3-(5-chloro-7-(1-isopentyl-1H-pyrazol-4-yl)-1H-benzo[d]imidazol-1-yl)propyl)piperidin-3-ol] yielded an IC50 of 100 to 500 nM.

Compound `Cc1ccc2c(nc(CO)n2CCC[C@H]2NCCC[C@@H]2O)c1C` [Example 146, (2R,3S)-2-(3-(2-(hydroxymethyl)-4,5-dimethyl-1H-benzo[d]imidazol-1-yl)propyl)piperidin-3-ol] showed an IC50 of at least 500 nM.

In turn, `O[C@H]1CCCN[C@@H]1CCCn1cnc2c(F)cc(F)cc21` [Example 57, (2R,3S)-2-(3-(4,6-difluoro-1H-benzo[d]imidazol-1-yl)propyl)piperidin-3-ol] yielded an IC50 of at least 500 nM.

As for `Cc1cc2ncn(CCC[C@H]3NCCC[C@@H]3O)c2cc1C` [Example 55, (2R,3S)-2-(3-(5,6-dimethyl-1H-benzo[d]imidazol-1-yl)propyl)piperidin-3-ol], the IC50 is at least 500 nM.

Compound `Cc1cc2ncn(C/C=C/[C@H]3NCCC[C@@H]3O)c2cc1C` [Example 169, (2R,3S)-2-((E)-3-(5,6-dimethyl-1H-benzo[d]imidazol-1-yl)prop-1-en-1-yl)piperidin-3-ol] came in with an IC50 of at least 500 nM.

Regarding `O=[N+]([O-])c1c(Br)ccc2ncn(CCC[C@H]3NCCC[C@@H]3O)c12` [Example 76, (2R,3S)-2-(3-(6-bromo-7-nitro-1H-benzo[d]imidazol-1-yl)propyl)piperidin-3-ol], the IC50 is at least 500 nM.

`Cc1ccc2c(ncn2C/C=C/[C@H]2NCCC[C@@H]2O)c1C` [Example 172, (2R,3S)-2-((E)-3-(4,5-dimethyl-1H-benzo[d]imidazol-1-yl)prop-1-en-1-yl)piperidin-3-ol] registered an IC50 of at least 500 nM.

In general, IC50 refers to the point on the concentration scale where inhibition reaches its midpoint. A high value points to weaker potency.
